Laboratory results taken from patent US8435978B2, “Substituted sulfonamide compounds” (Gruenenthal GmbH, priority 2006, dated 2013).

How the values were obtained:
[1] = target: T1, human B1R receptor (Homo sapiens, UniProt P46663); experiment: Functional study on the bradykinin receptor 1 (B1R), FLIPR Ca2+ assay, hB1R cells; type: cell-based; settings: CHO-K1, test substance 10 μM, agonist Lys-Des-Arg9-bradykinin 0.5 nM, % inhibition compared with the maximum achievable inhibition, read-out: B1R Antagonism, human [10 μM] % Inhibition
T1 construct: host or cells: CHO K1 cells (Chinese hamster ovary), stably transfected
T1 sequence (P46663 1-353): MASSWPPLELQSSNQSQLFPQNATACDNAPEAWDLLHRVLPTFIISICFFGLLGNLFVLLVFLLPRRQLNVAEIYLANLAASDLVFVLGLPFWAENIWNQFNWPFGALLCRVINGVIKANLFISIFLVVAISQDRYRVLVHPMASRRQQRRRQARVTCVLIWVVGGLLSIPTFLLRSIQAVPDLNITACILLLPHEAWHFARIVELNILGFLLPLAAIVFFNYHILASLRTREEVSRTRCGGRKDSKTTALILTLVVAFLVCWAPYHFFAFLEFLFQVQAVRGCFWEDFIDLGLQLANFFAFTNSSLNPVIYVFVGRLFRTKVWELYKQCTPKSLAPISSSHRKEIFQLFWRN
Outline: (§1)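 FLIPR Ca2+ read-out (Fluo-4, peak fluorescence) in stably transfected CHO K1 cells. Compounds at 10 μM, then 10 min later agonist challenge: human B1R with Lys-Des-Arg9-bradykinin 0.5 nM, rat B1R with Des-Arg9-bradykinin 100 nM; reported as % activation or % of maximal inhibition.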

[2] = target: T2, B1R receptor of the rat (Rattus norvegicus, UniProt P97583); experiment: Functional study on the bradykinin receptor 1 (B1R), FLIPR Ca2+ assay, rB1R cells; type: cell-based; settings: CHO-K1, test substance 10 μM, agonist Des-Arg9-bradykinin 100 nM, % inhibition compared with the maximum achievable inhibition, read-out: B1R Antagonism, rat [10 μM] % Inhibition
T2 construct: host or cells: CHO K1 cells (Chinese hamster ovary), stably transfected
T2 sequence (P97583 1-337): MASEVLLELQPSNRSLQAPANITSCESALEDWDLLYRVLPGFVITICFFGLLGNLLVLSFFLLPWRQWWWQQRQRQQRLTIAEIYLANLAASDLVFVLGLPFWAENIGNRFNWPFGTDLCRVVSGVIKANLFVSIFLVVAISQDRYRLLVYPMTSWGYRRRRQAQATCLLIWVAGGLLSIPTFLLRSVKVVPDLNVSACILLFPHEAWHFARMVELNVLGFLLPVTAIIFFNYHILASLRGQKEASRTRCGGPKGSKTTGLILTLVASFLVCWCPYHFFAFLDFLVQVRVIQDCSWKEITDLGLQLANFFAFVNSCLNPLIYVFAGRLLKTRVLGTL
Outline: as §1

| inhibition at 10 µM [1] | inhibition at 10 µM [2] | Compound |
| --- | --- | --- |
| 39.2% | 102% | COc1cc(C)c(S(=O)(=O)N2CCCCC2COCC(=O)Nc2cccc(N3CCOCC3)c2)c(C)c1 (stereo not shown) [Example 436, 2-((1-(4-methoxy-2,6-dimethylphenylsulfonyl)piperidin-2-yl)methoxy)-N-(3-morpholinophenyl)acetamide] |
| 53.3% | 42.2% | O=C(COCC1CCCCN1S(=O)(=O)c1ccc(Cl)c(Cl)c1)NCC1CCCN(Cc2ccccc2)C1 (stereo not shown) [Example 70, N-(1-benzyl-piperidin-3-ylmethyl)-2-[1-(3,4-dichloro-phenylsulfonyl)-piperidin-2-yl-methoxy]-acetamide] |
| 96.7% | 103% | CCN1CCN(C(=O)COCC2CCCN2S(=O)(=O)c2c(Cl)cc(Cl)cc2Cl)CC1 (stereo not shown) [Example 295, 1-(4-ethylpiperazin-1-yl)-2-((1-(2,4,6-trichlorophenylsulfonyl)pyrrolidin-2-yl)methoxy)ethanone] |
| 83.4% | 102% | Cc1ccc(N2CCN(C(=O)COCC3CCCN3S(=O)(=O)c3c(Cl)cccc3Cl)CC2)cc1C (stereo not shown) [Example 355, 2-((1-(2,6-dichlorophenylsulfonyl)pyrrolidin-2-yl)methoxy)-1-(4-(3,4-dimethylphenyl)piperazin-1-yl)ethanone] |
| 106% | 101% | COc1cc(C)c(S(=O)(=O)N2CCCC2COCC(=O)Nc2ccc(N3CCN(C)CC3)cc2)c(C)c1 (stereo not shown) [Example 301, 2-((1-(4-methoxy-2,6-dimethylphenylsulfonyl)pyrrolidin-2-yl)methoxy)-N-(4-(4-methylpiperazin-1-yl)phenyl)acetamide] |
| 85.4% | 97.7% | Cc1cc(C)c(S(=O)(=O)N2CCCCC2COCC(=O)N2CCCC2CN2CCCCC2)c(C)c1 (stereo not shown) [Example 27, 1-(2-piperidin-1-ylmethyl-pyrrolidin-1-yl)-2-[1-(2,4,6-trimethyl-phenylsulfonyl)-piperidin-2-ylmethoxy]-ethanone] |
| 92.8% | 98.6% | COc1cc(C)c(S(=O)(=O)N2CCCC2COCC(=O)N2CCN(Cc3ccccc3F)CC2)c(C)c1 (stereo not shown) [Example 444, 1-(4-(2-fluorobenzyl)piperazin-1-yl)-2-((1-(4-methoxy-2,6-dimethylphenylsulfonyl)pyrrolidin-2-yl)methoxy)ethanone] |
| 104% | 92% | Cc1ccc(C)n1CCN1CCN(C(=O)COCC2CCCCN2S(=O)(=O)c2c(Cl)cccc2Cl)CC1 (stereo not shown) [Example 280, 2-((1-(2,6-dichlorophenylsulfonyl)piperidin-2-yl)methoxy)-1-(4-(2-(2,5-dimethyl-1H-pyrrol-1-yl)ethyl)piperazin-1-yl)ethanone] |
| 99.9% | 103% | COc1cc(C)c(S(=O)(=O)N2CCCCC2COCC(=O)NCCCN2CCCCC2)c(C)c1 (stereo not shown) [Example 413, 2-((1-(4-methoxy-2,6-dimethylphenylsulfonyl)piperidin-2-yl)methoxy)-N-(3-(piperidin-1-yl)propyl)acetamide] |
| 105% | 101% | O=C(COCC1CCCCN1S(=O)(=O)c1c(Cl)cc(Cl)cc1Cl)N(C1CC1)C1CCN(Cc2ccccc2)CC1 (stereo not shown) [Example 255, N-(1-benzylpiperidin-4-yl)-N-cyclopropyl-2-((1-(2,4,6-trichlorophenylsulfonyl)piperidin-2-yl)methoxy)acetamide] |
| 44% | 104% | COc1cc(C)c(S(=O)(=O)N2CCCC2COCC(=O)N2CCN(Cc3c(C)cc(C)cc3C)CC2)c(C)c1 (stereo not shown) [Example 351, 2-((1-(4-methoxy-2,6-dimethylphenylsulfonyl)pyrrolidin-2-yl)methoxy)-1-(4-(2,4,6-trimethylbenzyl)piperazin-1-yl)ethanone] |
